4 molecules from patent US20230131899A1, “INHIBITORS OF MICROBIALLY INDUCED AMYLOID” (Axial Therapeutics, Inc., priority 2020, published 2023) can be followed below.

Like-named read-outs stand apart in the source and are kept apart here.

The test deals with T1, E. coli CsgA (Escherichia coli, UniProt P28307).
T1 construct: made in house; host or cells: E. coli NEB 3016 slyD::kan, pET11d
Kind of test: In vitro ThioflavinT assay of CsgA aggregation (CsgA ThT Assay). The format is biochemical. In outline:
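Purified C-terminal His-tagged CsgA, monomerised by desalting and 30-kDa filtration, at 2-20 μM with 20-40 μM ThT in 50 mM potassium phosphate pH 7.3, 1% DMSO, compounds 3.125-200 uM; room temperature, fluorescence (ex 438/em 495 nm) read every 15 min. Background-subtracted signal expressed as percent inhibition versus vehicle at 6-6.5 or 8-9 h, or as percent control AUC.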

[1] abbreviates: read-out: CsgA ThT Assay (10 μM CsgA) % Control AUC at 1005 minutes, 25 μM (activity range), CsgA 10 μM, black plates, compound 25 μM, 1005 minutes, class symbol.
[2] abbreviates: read-out: CsgA ThT Assay (10 μM CsgA) % Control AUC at 1005 minutes, 25 μM, mean AUC as % of DMSO control, CsgA 10 μM, black plates, compound 25 μM, 1005 minutes.
The mark [3] stands for this setting: read-out: CsgA ThT Assay (10 μM CsgA) % Control AUC at 1005 minutes, 100 μM (activity range), CsgA 10 μM, black plates, compound 100 μM, 1005 minutes, class symbol.
Where [4] appears, read: read-out: CsgA ThT Assay (10 μM CsgA) % Control AUC at 1005 minutes, 100 μM, mean AUC as % of DMSO control, CsgA 10 μM, black plates, compound 100 μM, 1005 minutes.

T1 sequence (P28307 23-151): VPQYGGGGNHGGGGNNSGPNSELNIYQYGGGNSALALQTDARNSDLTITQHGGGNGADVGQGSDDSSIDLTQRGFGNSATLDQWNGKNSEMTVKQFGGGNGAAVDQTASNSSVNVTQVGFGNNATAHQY

Take `CCCN1CC(C(=O)O)n2c(c(-c3cccc(C(F)(F)F)c3)c(Cc3cccc4ccccc34)cc2=O)S1(=O)=O` (single isomer, unassigned) [Compound 016b, 8-(naphthalen-1-ylmethyl)-6-oxo-2-propyl-9-(3-(trifluoromethyl)phenyl)-3,4-dihydro-2H,6H-pyrido[1,2-e][1,2,5]thiadiazine-4-carboxylic acid 1,1-dioxide]: the “CsgA ThT Assay (10 μM CsgA) % Control AUC at 1005 minutes, 25 μM (activity range)” value (CsgA 10 μM, black plates, compound 25 μM, 1005 minutes, class symbol) is reported as “(++) (% control AUC of 31 to 60%)”. Moreover, the “CsgA ThT Assay (10 μM CsgA) % Control AUC at 1005 minutes, 100 μM (activity range)” value (CsgA 10 μM, black plates, compound 100 μM, 1005 minutes, class symbol) is reported as “(+++) (% control AUC of 11 to 31%)”. The “CsgA ThT Assay (10 μM CsgA) % Control AUC at 1005 minutes, 25 μM” value (mean AUC as % of DMSO control, CsgA 10 μM, black plates, compound 25 μM, 1005 minutes) is recorded as 33%. Besides, the “CsgA ThT Assay (10 μM CsgA) % Control AUC at 1005 minutes, 100 μM” value (mean AUC as % of DMSO control, CsgA 10 μM, black plates, compound 100 μM, 1005 minutes) came out at 23%.
For the molecule `O=C(O)C1CN(CC2CCOCC2)c2c(-c3cccc(C(F)(F)F)c3)c(Cc3cccc4ccccc34)c(Cl)c(=O)n21` (stereo not shown) [Compound 182, 6-chloro-7-(naphthalen-1-ylmethyl)-5-oxo-1-((tetrahydro-2H-pyran-4-yl)methyl)-8-(3-(trifluoromethyl)phenyl)-1,2,3,5-tetrahydroimidazo[1,2-a]pyridine-3-carboxylic acid], the remaining activity at 25 µM (read-out: CsgA ThT Assay (2 μM CsgA) % Control Bmax 25 μM, activity range, class symbol, CsgA 2 μM, white plates, compound 25 μM) is > 60% and the remaining activity at 25 µM (read-out: CsgA ThT Assay (2 μM CsgA) % Control Bmax 25 μM, mean Bmax as percentage of DMSO control, CsgA 2 μM, white plates, compound 25 μM) came out at 68%. Further, the remaining activity at 100 µM is, setting by setting: (read-out: CsgA ThT Assay (2 μM CsgA) % Control Bmax 100 μM, activity range, class symbol, CsgA 2 μM, white plates, compound 100 μM) > 60%; (read-out: CsgA ThT Assay (2 μM CsgA) % Control Bmax 100 μM, mean Bmax as percentage of DMSO control, CsgA 2 μM, white plates, compound 100 μM) 61%.
`Cc1c(Cc2cccc3ccccc23)c(-c2cccc(C(F)(F)F)c2)c2n(c1=O)C(C(=O)O)CN(C)S2(=O)=O` (stereo not shown) [Compound 068, 2,7-dimethyl-8-(naphthalen-1-ylmethyl)-6-oxo-9-(3-(trifluoromethyl)phenyl)-3,4-dihydro-2H,6H-pyrido[1,2-e][1,2,5]thiadiazine-4-carboxylic acid 1,1-dioxide]: the remaining activity at 25 µM is, setting by setting: under setting [1], 31 to 60%; under setting [2], 43%. The remaining activity at 100 µM under setting [3] fell in the range of 11 to 31% and the remaining activity at 100 µM under setting [4] turned out to be 23%.
Taken in the same sequence, the figures for `CNC(=O)C1CN(C)S(=O)(=O)c2c(-c3cccc(C(F)(F)F)c3)c(Cc3cccc4ccccc34)cc(=O)n21` (stereo not shown) [Compound 031, N,2-dimethyl-8-(naphthalen-1-ylmethyl)-6-oxo-9-(3-(trifluoromethyl)phenyl)-3,4-dihydro-2H,6H-pyrido[1,2-e][1,2,5]thiadiazine-4-carboxamide 1,1-dioxide] were > 60%, 100%, > 60% and 99%.
